biological target: T1, GlyT1 (Homo sapiens, UniProt P48067); experiment: Glycine Transporter 1 (GlyT1) uptake assay, scintillation proximity assay of [14C]-glycine uptake; format: cell-based; conditions: SPA, four parameter logistic fit, read-out: GlyT1 (pIC50) (converted)
T1 construct: expressed in transfected cells
T1 sequence (P48067 1-706): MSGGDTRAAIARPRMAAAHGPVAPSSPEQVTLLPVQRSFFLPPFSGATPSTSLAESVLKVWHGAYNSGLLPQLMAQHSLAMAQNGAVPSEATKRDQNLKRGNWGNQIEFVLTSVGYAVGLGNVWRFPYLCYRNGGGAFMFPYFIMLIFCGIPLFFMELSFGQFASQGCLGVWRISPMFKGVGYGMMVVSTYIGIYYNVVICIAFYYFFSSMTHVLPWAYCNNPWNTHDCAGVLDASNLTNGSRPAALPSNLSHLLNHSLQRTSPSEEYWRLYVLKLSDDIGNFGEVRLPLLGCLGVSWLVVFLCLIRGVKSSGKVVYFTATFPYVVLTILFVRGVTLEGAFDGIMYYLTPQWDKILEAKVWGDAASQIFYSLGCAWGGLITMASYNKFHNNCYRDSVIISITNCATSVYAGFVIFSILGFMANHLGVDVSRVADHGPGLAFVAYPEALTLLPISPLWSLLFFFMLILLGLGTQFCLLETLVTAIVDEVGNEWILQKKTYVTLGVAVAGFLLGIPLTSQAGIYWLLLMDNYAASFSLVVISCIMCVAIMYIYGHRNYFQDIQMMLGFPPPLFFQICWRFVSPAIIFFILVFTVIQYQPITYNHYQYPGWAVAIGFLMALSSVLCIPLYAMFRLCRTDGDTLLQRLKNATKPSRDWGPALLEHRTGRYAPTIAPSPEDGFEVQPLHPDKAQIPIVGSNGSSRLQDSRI
Method in brief: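 [14C]-glycine uptake read by scintillation proximity on a plate counter. IC50 from four-parameter logistic fit of dose-response data.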

Row | Structure (SMILES) | IC50 [µM]
1 | CCOc1cc(-n2cc3c(n2)CN(C(=O)c2cc(C#N)ccc2OC(C)C)C3)ccn1 [Example 370, 3-[2-(2-Ethoxypyridin-4-yl)-2H 4H 5H 6H-pyrrolo[3,4-c]pyrazole-5-carbonyl]-4-(propan-2-yloxy)benzonitrile] | 0.1 to 1
2 | CC(C)Oc1cc(-n2cc3c(n2)CN(C(=O)c2cc(C#N)ccc2OC(C)C)C3)ccn1 [Example 373, 4-(Propan-2-yloxy)-3-{2-[2-(propan-2-yloxy)pyridin-4-yl]-2H 4H 5H 6H-pyrrolo[3,4-c]pyrazole-5-carbonyl}benzonitrile] | 0.1 to 1
3 | CC(C)Oc1ccc(C#N)cc1C(=O)N1Cc2cn(-c3ccnc(C(C)C)c3)nc2C1 [Example 374, 3-{2-[2-(Propan-2-yl)pyridin-4-yl]-2H 4H 5H 6H-pyrrolo[3,4-c]pyrazole-5-carbonyl}-4-(propan-2-yloxy)benzonitrile] | < 0.1
4 | COc1c(C#N)ccc(C2(F)CCCC2)c1C(=O)N1Cc2cn(-c3ccnc(C)c3)nc2C1 [Example 376, 4-(1-Fluorocyclopentyl)-2-methoxy-3-[2-(2-methylpyridin-4-yl)-2H 4H 5H 6H-pyrrolo[3,4-c]pyrazole-5-carbonyl]benzonitrile] | < 0.1
5 | COc1c(C#N)ccc(C2(F)CCCC2)c1C(=O)N1Cc2cn(-c3cncc(F)c3)nc2C1 [Example 377, 4-(1-Fluorocyclopentyl)-3-[2-(5-fluoropyridin-3-yl)-2H 4H 5H 6H-pyrrolo[3,4-c]pyrazole-5-carbonyl]-2-methoxybenzonitrile] | < 0.1
6 | C[C@H](Oc1ccc(C#N)cc1C(=O)N1Cc2cnn(CC(C)(C)F)c2C1)C(F)(F)F [Example 379, 3-[1-(2-Fluoro-2-methylpropyl)-1H 4H 5H 6H-pyrrolo[3,4-c]pyrazole-5-carbonyl]-4-{[(2S)-1 1 1-trifluoropropan-2-yl]oxy}benzonitrile] | > 10
7 | Cc1cc(-n2cc3c(n2)CN(C(=O)c2cc(C#N)ccc2OC(C)C)C3)cc(C)n1 [Example 381, 3-[2-(2 6-Dimethylpyridin-4-yl)-2H 4H 5H 6H-pyrrolo[3,4-c]pyrazole-5-carbonyl]-4-(propan-2-yloxy)benzonitrile] | < 0.1
8 | CC(C)n1ncc2c1CN(C(=O)c1cc(C#N)ccc1O[C@@H](C)C(F)(F)F)C2 [Example 384, 3-[1-(Propan-2-yl)-1H 4H 5H 6H-pyrrolo[3,4-e]pyrazole-5-carbonyl]-4-{[(2S)-1 1 1-trifluoropropan-2-yl]oxy}benzonitrile] | 1 to 10
9 | CC(C)Cn1ncc2c1CN(C(=O)c1cc(C#N)ccc1O[C@@H](C)C(F)(F)F)C2 [Example 387, 3-[1-(2-Methylpropyl)-1H 4H 5H 6H-pyrrolo[3,4-c]pyrazole-5-carbonyl]-4-{[(2S)-1 1 1-trifluoropropan-2-yl]oxy}benzonitrile] | > 10
10 | C[C@H](Oc1ccc(C#N)cc1C(=O)N1Cc2cnn(C3CCCC3)c2C1)C(F)(F)F [Example 388, 3-{1-Cyclopentyl-1H 4H 5H 6H-pyrrolo[3,4-c]pyrazole-5-carbonyl}-4-{[(2 S)-1 1 1-trifluoropropan-2-yl]oxy}benzonitrile] | 1 to 10
11 | C[C@H](Oc1ccc(C#N)cc1C(=O)N1Cc2cn(C3CCCC3)nc2C1)C(F)(F)F [Example 389, 3-{2-Cyclopentyl-2H 4H 5H 6H-pyrrolo[3,4-c]pyrazole-5-carbonyl}-4-{[(2S)-1 1 1-trifluoropropan-2-yl]oxy}benzonitrile] | 0.1 to 1
12 | CC(C)Oc1ccc(C#N)cc1C(=O)N1Cc2cn(-c3ccc(F)cc3F)nc2C1 [Example 390, 3-[2-(2 4-Difluorophenyl)-2H 4H 5H 6H-pyrrolo[3,4-c]pyrazole-5-carbonyl]-4-(propan-2-yloxy)benzonitrile] | 0.1 to 1
13 | COCCCn1ncc2c1CN(C(=O)c1cc(C#N)ccc1O[C@@H](C)C(F)(F)F)C2 [Example 392, 3-[1-(3-Methoxypropyl)-1H 4H 5H 6H-pyrrolo[3,4-c]pyrazole-5-carbonyl]-4-{[(2S)-1 1 1-trifluoropropan-2-yl]oxy}benzonitrile] | > 10
14 | C[C@H](Oc1ccc(C#N)cc1C(=O)N1Cc2cnn(CC3CCOCC3)c2C1)C(F)(F)F [Example 394, 3-[1-(Oxan-4-ylmethyl)-1H 4H 5H 6H-pyrrolo[3,4-c]pyrazole-5-carbonyl]-4-{[(2S)-1 1 1-trifluoropropan-2-yl]oxy}benzonitrile] | 1 to 10
15 | CC(C)Cn1cc2c(n1)CN(C(=O)c1cc(S(C)(=O)=O)ccc1O[C@@H](C)C(F)(F)F)C2 [Example 399, 5-(5-Methanesulfonyl-2-{[(2S)-1 1 1-trifluoropropan-2-yl]oxy}benzoyl)-2-(2-methylpropyl)-2H 4H 5H 6H-pyrrolo[3,4-c]pyrazole] | < 0.1
16 | CC(C)Cn1cc2c(n1)CN(C(=O)c1cc(S(C)(=O)=O)ccc1OC(C)C)C2 [Example 400, 5-[5-Methanesulfonyl-2-(propan-2-yloxy)benzoyl]-2-(2-methylpropyl)-2H 4H 5H 6H-pyrrolo[3,4-c]pyrazole] | < 0.1

Next, values leading:

Row | IC50 [µM] | Structure (SMILES)
17 | 0.1 to 1 | CCOc1cc(-n2cc3c(n2)CN(C(=O)c2cc(C#N)ccc2O[C@@H](C)C(F)(F)F)C3)ccn1 [Example 371, 3-[2-(2-Ethoxypyridin-4-yl)-2H 4H 5H 6H-pyrrolo[3,4-c]pyrazole-5-carbonyl]-4-{[(2S)-1 1 1-trifluoropropan-2-yl]oxy}benzonitrile]
18 | < 0.1 | CC(C)c1cc(-n2cc3c(n2)CN(C(=O)c2cc(C#N)ccc2O[C@@H](C)C(F)(F)F)C3)ccn1 [Example 375, 3-{2-[2-(Propan-2-yl)pyridin-4-yl]-2H 4H 5H 6H-pyrrolo[3,4-c]pyrazole-5-carbonyl}-4-{[(2S)-1 1 1-trifluoropropan-2-yl]oxy}benzonitrile]
19 | 0.1 to 1 | C[C@H](Oc1ccc(C#N)cc1C(=O)N1Cc2cn(CC(C)(C)F)nc2C1)C(F)(F)F [Example 378, 3-[2-(2-Fluoro-2-methylpropyl)-2H 4H 5H 6H-pyrrolo[3,4-c]pyrazole-5-carbonyl]-4-{[(2S)-1 1 1-trifluoropropan-2-yl]oxy}benzonitrile]
20 | < 0.1 | Cc1cc(-n2cc3c(n2)CN(C(=O)c2cc(C#N)ccc2O[C@@H](C)C(F)(F)F)C3)cc(C)n1 [Example 380, 3-[2-(2 6-Dimethylpyridin-4-yl)-2H 4H 5H 6H-pyrrolo[3,4-c]pyrazole-5-carbonyl]-4-{[(2S)-1 1 1-trifluoropropan-2-yl]oxy}benzonitrile]
21 | 0.1 to 1 | C[C@H](Oc1ccc(C#N)cc1C(=O)N1Cc2cn(Cc3ccccc3)nc2C1)C(F)(F)F [Example 382]
22 | 1 to 10 | C[C@H](Oc1ccc(C#N)cc1C(=O)N1Cc2cnn(Cc3ccccc3)c2C1)C(F)(F)F [Example 383]
23 | 1 to 10 | CC(C)n1cc2c(n1)CN(C(=O)c1cc(C#N)ccc1O[C@@H](C)C(F)(F)F)C2 [Example 385, 3-[2-(Propan-2-yl)-2H 4H 5H 6H-pyrrolo[3,4-c]pyrazole-5-carbonyl]-4-{[(2 S)-1 1 1-trifluoropropan-2-yl]oxy}benzonitrile]
24 | 0.1 to 1 | CC(C)Cn1cc2c(n1)CN(C(=O)c1cc(C#N)ccc1O[C@@H](C)C(F)(F)F)C2 [Example 386, 3-[2-(2-Methylpropyl)-2H 4H 5H 6H-pyrrolo[3,4-c]pyrazole-5-carbonyl]-4-{[(2S)-1 1 1-trifluoropropan-2-yl]oxy}benzonitrile]
25 | 0.1 to 1 | C[C@H](Oc1ccc(C#N)cc1C(=O)N1Cc2cn(-c3ccc(F)cc3F)nc2C1)C(F)(F)F [Example 391, 3-[2-(2 4-Difluorophenyl)-2H 4H 5H 6H-pyrrolo[3,4-c]pyrazole-5-carbonyl]-4-{[(2S)-1 1 1-trifluoropropan-2-yl]oxy}benzonitrile]
26 | 0.1 to 1 | COCCCn1cc2c(n1)CN(C(=O)c1cc(C#N)ccc1O[C@@H](C)C(F)(F)F)C2 [Example 393, 3-[2-(3-Methoxypropyl)-2H 4H 5H 6H-pyrrolo[3,4-c]pyrazole-5-carbonyl]-4-{[(2S)-1 1 1-trifluoropropan-2-yl]oxy}benzonitrile]
27 | 0.1 to 1 | Cc1cccc(-n2cc3c(n2)CN(C(=O)c2cc(C#N)ccc2O[C@@H](C)C(F)(F)F)C3)c1F [Example 395]
28 | 0.1 to 1 | C[C@H](Oc1ccc(C#N)cc1C(=O)N1Cc2cn(CC3CCOCC3)nc2C1)C(F)(F)F [Example 396, 3-[2-(Oxan-4-ylmethyl)-2H 4H 5H 6H-pyrrolo[3,4-c]pyrazole-5-carbonyl]-4-{[(2S)-1 1 1-trifluoropropan-2-yl]oxy}benzonitrile]
29 | < 0.1 | C[C@H](Oc1ccc(C#N)cc1C(=O)N1Cc2cn(-c3ccccc3F)nc2C1)C(F)(F)F [Example 397, 3-[2-(2-Fluorophenyl)-2H 4H 5H 6H-pyrrolo[3,4-c]pyrazole-5-carbonyl]-4-{[(2S)-1 1 1-trifluoropropan-2-yl]oxy}benzonitrile]
30 | < 0.1 | C[C@H](Oc1ccc(S(C)(=O)=O)cc1C(=O)N1Cc2cn(Cc3ccccc3)nc2C1)C(F)(F)F [Example 398, 2-Benzyl-5-(5-methanesulfonyl-2-{[(2S)-1 1 1-trifluoropropan-2-yl]oxy}benzoyl)-2H 4H 5H 6H-pyrrolo[3,4-c]pyrazole]

— patent publication US9708334B2, “Substituted 2,4,5,6-tetrahydropyrrolo[3,4-c]pyrazole and 4,5,6,7-tetrahydro-2H-pyrazolo[4,3-c]pyridine compounds as GlyT1 inhibitors” (DART NEUROSCIENCE (CAYMAN) LTD., priority 2014, dated 2017)
